Results as given in patent publication US9920096B2, “Bradykinin receptor modulators and use thereof” (Sepia Pesquisa e Desenvolvimento, priority 2013, dated 2018).

Key:
[1] = system: Human umbilical vein endothelial cells (HUVEC); experiment: In vitro angiogenesis assay on Matrigel (HUVEC); type: cell-based
Method: The angiogenesis assay was performed according to the protocol described in Paschoalin T, et al (2007).
Human umbilical vein endothelial cells (HUVEC) were maintained in complete RPMI 1640 medium, pH 7.2, supplemented with 10 mM N-2-hydroxyethylpiperazine-N′-2-ethanesulphonic acid (HEPES), 24 mM sodium bicarbonate, 10% heat-inactivated fetal calf serum (FCS) from Gibco (Minneapolis, Minn., USA) and 40 μg/mL gentamicin sulfate (Hipolabor Farmacéutica, Sabará, MG, Brazil).
In vitro angiogenesis assay on Matrigel was performed as described previously (Paschoalin et al, 2007). Briefly, BD Matrigel Matrix (B&D Biosciences, Bedford, Mass., USA) was thawed on ice, distributed in 96-well plates (50 μL per well) and allowed to polymerize for 1 h at 37° C. HUVECs (15×10^3 cells/well) were suspended in 100 μL of RPMI medium supplemented with 2% of FCS and added to each well in the presence of peptides with possible angiogenic activity. Angiogenic stimulators and inhibitors can be incubated with the cells before adding on the Matrigel if necessary. The plates were incubated at 37° C. for 18 h and then images were captured at 8× magnification with a Sony Cyber-shot camera coupled to a light inverted microscope. The number of pro-angiogenic structures (closed rings arising from dendritic extensions of endothelial cells) was counted from 4 different wells, and the average value was determined for each sample.
When stimulated by angiogenic factors, like BK, HUVEC cells undergo the development of pro-angiogenic structures and it allows studying angiogenic or anti-angiogenic molecules. The number of pro-angiogenic structures is counted and compared to a control and to BK. Generally, peptides of the invention derived from VEGF-A were named PepA, peptides from VEGF-C were named PepC, peptides from VEGF-D were named PepD and peptides from Placental Growth Factor were named PepPl.
* p<0.05, Student's “t” test, when comparing the mean number of pro-angiogenic structures from […] different wells of HUVEC cultures to the control.

[2] = system: HUVEC cells; experiment: Intracellular calcium measurement in HUVEC cells (Fluo-3 fluorescence); type: cell-based, Human; conditions: for Bradykinin receptor activity indicated by calcium entry data: FIG. 5A-E, with and without B1/B2 antagonists
Method: The intracellular calcium measurement was performed according to the method described in Bagnaresi P et al, 2012 and Lungato L, et al., 2012.
Human umbilical vein endothelial cells were cultured in RPMI 1640 (GIBCO) containing 10% heat-inactivated fetal bovine serum (FBS), 24 mM sodium bicarbonate, […] gentamicin, 10 mM HEPES, pH 7.4 at 37° C. in a 5% CO2 humidified atmosphere. 5×10^4 cells were plated on 60 mm dishes (Costar 3260), and incubated in culture medium containing 5 μM Fluo-3 AM (Invitrogen Corporation, CA) for 40 min at 37° C. in a buffer containing the channel blocker Probenecid (40 μM), followed by 3 washes with culture medium to discard remaining extracellular probe. The cells were then placed into a culture chamber at 37° C. on the stage of a fluorescence microscope (Zeiss LSM 510 META) with excitation at 488 nm and emission at 505-530 nm. After calcium probe incubation, assays were performed with 1 uM bradykinin (BK), 10 uM PepD 2-10.
Fluorescence data were normalized as F/Fmax, where Fmax represents maximal intracellular fluorescence obtained with Ca2+ released from ER with addition of THG, a Ca2+ATPase inhibitor (Bagnaresi et al. 2012). THG blocks calcium pumps that recover cytosolic calcium from the cytoplasm. Under the action of THG the cytosolic calcium reaches its maximal concentration.
The software-based analysis allowed fluorescence imaging in the whole field or in a selected cell as a function of time (Image J 1.47h, NIH, USA). This was accomplished by defining areas of interest (e.g., an entire cell) on a given image frame and directing the software to construct a graphical representation of intensity over time (GraphPad Software 6 Prisma). Individual traces for typical 15 cells responses represent the intracellular calcium fluorescence changes in the analyzed cell population (Lungato et al. 2012).

[3] = FIG. 2 and 3, peptide at 10 μM, compared to BK 1 μM and control without peptide
[4] = FIG. 5E, peptide 10 μM, in the presence of B1 receptor antagonist DesArg9-Leu8-BK
[5] = FIG. 4A/4B, 1 μM and 10 μM, 24 h after initial stimulus

FKPPCVNVF [PepD 1-9, derived from VEGF-D]
Induction of angiogenesis in HUVEC angiogenesis assay [1, 3]: able to induce angiogenesis

FKPPCVNVFR [PepD 1-10, derived from VEGF-D]
Induction of angiogenesis in HUVEC angiogenesis assay [1, 3]: able to induce angiogenesis

FKPPCVSVYR [PepC 1-10, derived from VEGF-C]
Induction of angiogenesis in HUVEC angiogenesis assay ([1]; FIG. 4C, 0.1, 1.0 and 10 μM, 24 h after initial stimulus): able to induce angiogenesis

FKPSCVPLM [PepA 1-9, derived from VEGF-A]
Induction of angiogenesis in HUVEC angiogenesis assay [1, 3]: able to induce angiogenesis

FSPSCVSLLR [PepPl 1-10, derived from Placental Growth Factor]
Cell fluorescence due to calcium entry in the cytoplasm of HUVEC [2, 4]: induces an increase in cell fluorescence
Duration of transient fluorescence increase (cytoplasmic calcium increase) [2, 4]: around 5 minutes

KPPCVNVFR [PepD 2-10, derived from VEGF-D]
Effect on HUVEC angiogenesis assay (number of pro-angiogenic structures) ([1]; FIG. 1, tested at 1 μM, 10 μM and 50 μM, effect at 1 and 10 μM, compared to control): pro-angiogenic effect
Induction of angiogenesis in HUVEC angiogenesis assay [1, 3]: able to induce angiogenesis
Bradykinin receptor activity indicated by calcium entry data ([2]; peptide 10 μM): B2 agonist
Bradykinin receptor activity indicated by calcium entry data ([2]; peptide 10 μM, listed as PepD2-10): B1 bradykinin receptor activation
Cytoplasmic calcium in HUVEC (Fluo-3 fluorescence) ([2]; FIG. 5B, peptide 10 μM): induces an increase of cytoplasmatic calcium
Calcium entry induced by the peptide after previous addition of B2 receptor antagonist HOE140 ([2]; FIG. 5C, HOE 140 10 μM for 10 min before peptide 10 μM): does not block calcium entry but clearly shows a disruption in the pattern of calcium increase
Calcium entry induced by the peptide after previous addition of B1 receptor antagonist DesArg9-Leu8-BK ([2]; FIG. 5D, DesArg9-Leu8-BK 10 μM for 10 min before peptide 10 μM): completely blocks the effect of PepD 2-10

KPPCVSVY [PepC 2-9, derived from VEGF-C]
Induction of angiogenesis in HUVEC angiogenesis assay [1, 5]: able to induce angiogenesis

KPPCVSVYR [PepC 2-10, derived from VEGF-C]
Induction of angiogenesis in HUVEC angiogenesis assay [1, 5]: able to induce angiogenesis

KPSCVPLM [PepA 2-9, derived from VEGF-A]
Induction of angiogenesis in HUVEC angiogenesis assay [1, 3]: able to induce angiogenesis
